pIC50: −log10 of the molar value. Calls of active or inactive are those of the source. How the calls were made is not given here.
Molecular target: Ubiquitin carboxyl-terminal hydrolase 10 (Homo sapiens) (UniProt Q14694)
Experiment: primary hit verification, biochemical, ubiquitin-specific protease 10 deubiquitylase inhibitors, concentration-effect titration (AID 1645863);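 further: potency values describe inhibition of USP10 cleavage of a fluorogenic ubiquitin substrate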
Details: USP10 deubiquitinase enzymatic assay

Chain of Ubiquitin carboxyl-terminal hydrolase 10 (Homo sapiens) (Q14694 whole entry, looked up): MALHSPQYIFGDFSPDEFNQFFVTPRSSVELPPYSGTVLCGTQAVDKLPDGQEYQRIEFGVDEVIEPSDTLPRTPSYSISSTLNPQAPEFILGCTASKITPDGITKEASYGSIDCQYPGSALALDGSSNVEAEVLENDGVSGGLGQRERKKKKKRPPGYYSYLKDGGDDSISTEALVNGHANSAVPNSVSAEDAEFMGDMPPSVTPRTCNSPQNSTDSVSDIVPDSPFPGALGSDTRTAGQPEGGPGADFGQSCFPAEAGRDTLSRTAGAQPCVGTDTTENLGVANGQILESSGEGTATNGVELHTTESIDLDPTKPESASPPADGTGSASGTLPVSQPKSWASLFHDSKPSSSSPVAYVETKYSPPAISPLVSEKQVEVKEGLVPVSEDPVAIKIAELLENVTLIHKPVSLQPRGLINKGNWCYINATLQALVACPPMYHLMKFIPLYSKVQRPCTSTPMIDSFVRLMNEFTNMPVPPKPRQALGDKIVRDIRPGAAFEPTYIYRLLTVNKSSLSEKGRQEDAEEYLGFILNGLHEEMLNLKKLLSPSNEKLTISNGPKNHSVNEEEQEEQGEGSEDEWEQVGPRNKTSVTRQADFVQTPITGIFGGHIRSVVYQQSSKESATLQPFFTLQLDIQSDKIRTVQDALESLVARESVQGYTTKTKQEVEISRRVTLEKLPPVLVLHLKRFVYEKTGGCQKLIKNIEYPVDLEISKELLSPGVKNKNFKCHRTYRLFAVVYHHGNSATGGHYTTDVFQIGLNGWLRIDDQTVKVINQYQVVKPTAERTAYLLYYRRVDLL

Structure (SMILES) | pIC50 | IC50
COc1ccc(Cl)cc1NC(=O)COC(=O)c1cc2ccccc2oc1=O | 4.76 | 
CC(=O)Nc1ccc(S(=O)(=O)NCc2ccc(C(=O)NCCc3ccc(Cl)cc3)cc2)cc1 |  | > 40 µM (inactive)
CC(=O)N1CCc2cc(S(=O)(=O)NC(Cc3ccccc3)C(=O)Nc3cccc(Cl)c3C)ccc21 (configuration not stated) | 4.62 | 
O=S1(=O)CCN(CC2CCCO2)c2c(Oc3ccccc3)nc(F)c(Cl)c21 (configuration not stated) |  | > 40 µM (inactive)
COc1cc(OC)c(NC(=O)Cn2c(=O)n(Cc3ccccc3Cl)c(=O)c3cc(OC)c(OC)cc32)cc1Cl |  | > 40 µM (inactive)
COc1cc(OC)c2c(c1)C(=O)C1=C(COC(C)(O)C1)C2=O (configuration not stated) |  | > 40 µM (inactive)
Cn1c(=O)c2ncnnc2n(C)c1=O | 5.51 | 
Cc1cc(NC(=O)CN2CCCN(S(=O)(=O)c3ccc(F)cc3)CC2)ccc1Br |  | > 40 µM (inactive)
COc1ccc(-c2onc(C)c2C)cc1S(=O)(=O)NCc1ccc(F)cc1 |  | > 40 µM (inactive)
O=C1CC(O)C(O)c2cccc(O)c21 (configuration not stated) |  | > 40 µM (inactive)
Cc1ccc2[nH]c(=O)c(-c3nc4ccc(C)cn4c3NCc3ccc(F)cc3)cc2c1 | 4.69 | 
N#Cc1cccc(NC(=O)COC(=O)c2n[nH]c3ccccc23)c1 | 4.70 | 
Cc1[nH]nc(NC(=O)C2COc3ccccc3O2)c1-c1ccccc1 (configuration not stated) |  | > 40 µM (inactive)
COc1ccc(C(=O)NC(Cc2ccccc2)c2nc3ccccc3[nH]2)c(OC)c1 (configuration not stated) |  | > 40 µM (inactive)
Cc1ccc(CC(=O)Nc2ccc(C)cc2-c2n[nH]c(C3CC3)n2)cc1 |  | > 40 µM (inactive)
COc1ccc(CNc2ccc(C(=O)OCc3ccccc3F)cc2S(=O)(=O)Nc2cccc(OC)c2)cc1 |  | > 40 µM (inactive)
O=c1cc(-c2ccc(O)c(O)c2)oc2cc(O)cc(O)c12 | 5.75 | 
COc1cccc(C(=O)Nc2ccc(SC(C(=O)Nc3ccccc3)c3ccccc3)cc2)c1 (configuration not stated) |  | > 40 µM (inactive)
O=C(Nc1ccc(-n2cccc2)cc1)c1cccc([N+](=O)[O-])c1 |  | > 40 µM (inactive)
CCOc1ccc(-c2nnc(-c3cnc4onc(C5CCCC5)c4c3)o2)cc1 | 4.60 | 
COc1ccc(/C=C/C(=O)Nc2ccc3nc(N4CCN(c5ncccn5)CC4)cc(C)c3c2)cc1 |  | > 40 µM (inactive)
O=C(Nc1ccccc1Cl)c1cc(-c2ccncc2)n[nH]1 |  | > 40 µM (inactive)
Cc1cccc(OCCn2c(CCNC(=O)C3CCCCC3)nc3ccccc32)c1 | 4.79 | 

Structure (SMILES) | pIC50 | IC50
N=C1/C(=C/c2cn(Cc3ccc(F)cc3)c3ccccc23)C(=O)N=C2SC(Cc3ccccc3)=NN12 | 4.76 | 
NC(=O)C[C@H](NC(=O)[C@H](Cc1ccccc1)n1c(=O)[nH]c2ccccc2c1=O)C(=O)N[C@@H](Cc1ccccc1)C(=O)O |  | > 40 µM (inactive)
COc1ccccc1Nc1ncc(C(=O)NCc2ccc(F)cc2)c2ccccc12 |  | > 40 µM (inactive)
O=C(CCCc1nnc2c(=O)n(-c3cccc(F)c3)ccn12)Nc1ccccc1 |  | > 40 µM (inactive)
Cc1c(C(=O)Nc2ccc(Oc3ccccc3)cc2)nnn1-c1cccc(Cl)c1 |  | > 40 µM (inactive)
COc1ccc(NC(=O)Cn2cc(C(=O)c3ccc(C)cc3)c(=O)c3ccccc32)cc1 | 4.52 | 
CCOc1ccc(S(=O)(=O)Nc2ccc[nH]c2=O)cc1 |  | > 40 µM (inactive)
O=S(=O)(c1ccccc1Cl)N1CCN(c2ccc3nnc(-c4ccco4)n3n2)CC1 |  | > 40 µM (inactive)
COc1cc(Cl)c(NC(=O)C2Cc3ccccc3N2C(=O)c2ccccc2)c(OC)c1 (configuration not stated) | 4.57 | 
O=C(/C=C/c1ccco1)c1cccc([N+](=O)[O-])c1 | 4.46 | 
COC(=O)c1ccc2c(=O)n(CCCCCC(=O)NCCc3ccc(OC)c(OC)c3)c(=O)[nH]c2c1 |  | > 40 µM (inactive)
Cc1ccccc1NC(=O)N1CCC(CC(=O)N2CCCCC2)CC1 |  | > 40 µM (inactive)
CCCCCCCc1cc(OC(=O)c2c(CCCCCCC)cc(O)cc2O[C@@H]2O[C@H](CO)[C@@H](O)[C@H](O)[C@H]2O)cc(O)c1C(=O)O | 5.40 | 
COC(=O)c1ccc2c(=O)n(CCCCCC(=O)NCCc3ccc(S(N)(=O)=O)cc3)c(=O)[nH]c2c1 | 4.61 | 
O=C(Nc1cccc(Cl)c1)c1cc(-c2cccnc2)n[nH]1 |  | > 40 µM (inactive)
O=C(Cn1c(COc2ccccc2)nc2ccccc21)Nc1ccc(N2CCOCC2)cc1 |  | > 40 µM (inactive)
COCCCNC(=O)c1ccc(Cn2c(=O)c3ccccc3n(CC(=O)Nc3ccc4c(c3)OCCO4)c2=O)cc1 |  | > 40 µM (inactive)
Cc1cc(C)c(C#N)c(N2CCN(CCOc3ccc(Cl)cc3)CC2)n1 |  | > 40 µM (inactive)
Cc1cc(=O)[nH]c(NC2CCN(S(=O)(=O)c3ccccc3C(F)(F)F)CC2)n1 |  | > 40 µM (inactive)
COc1ccccc1/C=C/C(=O)NC(Cc1ccccc1)c1nc2ccccc2[nH]1 (configuration not stated) |  | > 40 µM (inactive)
O=C(c1ccco1)N1CCC2(CC1)CC1(CO2)Nc2ccccc2-n2cccc21 (configuration not stated) |  | > 40 µM (inactive)
Cn1cc(NC(=O)Nc2cccc(C(F)(F)F)c2)c2ccccc2c1=O | 4.54 | 
COc1ccc(Oc2cc3n(c(=O)n2)CCc2cc(OC)c(OC)cc2-3)cc1 |  | > 40 µM (inactive)

Structure (SMILES) | pIC50 | IC50
O=C(Cn1c(=O)c2sccc2n(CC(=O)OCc2ccccc2)c1=O)NCc1ccccc1Cl | 4.78 | 
CC(C)(C)C(=O)C1C2C(=O)N(c3ccc4c(c3)OCO4)C(=O)C2C2c3ccccc3C=CN12 (configuration not stated) |  | > 40 µM (inactive)
Cc1nnc(NC(=O)C2CC(=O)N(CCc3ccc(F)cc3)C2)s1 (configuration not stated) |  | > 40 µM (inactive)
Cc1cccc(N2C(=O)/C(=C\c3ccc4c(c3)OCCO4)c3ccccc3C2=O)c1 |  | > 40 µM (inactive)
Cc1noc(/C=C/Nc2cc(Cl)cc(Cl)c2)c1[N+](=O)[O-] |  | > 40 µM (inactive)
O=C(Cn1c(=O)c2ccccc2n(CC(=O)Nc2cccc(F)c2)c1=O)NCCc1ccccc1 | 4.56 | 
COc1ccc(/C=C/C(=O)Nc2cccc(S(=O)(=O)Nc3ccccc3Cl)c2)c(OC)c1 | 4.82 | 
COc1ccc(-c2nc(NCCCN3CCOCC3)c3ccccc3n2)cc1 |  | > 40 µM (inactive)
Cn1c(CCNC(=O)c2[nH]nc3c2CCc2ccccc2-3)nc2ccccc21 | 4.44 | 
Oc1cccc2c(-c3ccc(O)c4c(O)cccc34)ccc(O)c12 |  | > 40 µM (inactive)
CCn1c(CNC(=O)c2cccc(C)c2)nnc1SCC(=O)N1CCc2ccccc21 |  | > 40 µM (inactive)
COc1ccc(NC(=O)Cn2cc(C(=O)c3ccc(Cl)cc3)c(=O)c3cc(F)ccc32)cc1 | 4.88 | 
Cc1csc(NC(=O)c2c[nH]c3ccc(F)cc3c2=O)n1 |  | > 40 µM (inactive)
O=C(COc1cccc(-c2noc(-c3ccc([N+](=O)[O-])cc3)n2)c1)Nc1ccccc1 |  | > 40 µM (inactive)
N#Cc1ccc(NC(=O)Nc2cccn(Cc3ccccc3Br)c2=O)cc1 |  | > 40 µM (inactive)
O=C(CC1C(=O)N(C2CCCC2)c2nc3ccccc3n21)Nc1ccccc1 (configuration not stated) |  | > 40 µM (inactive)
COc1ccc2c(c1)CCc1c-2nc2ccccc2c1N1CCOCC1 |  | > 40 µM (inactive)
Cc1cc(NS(=O)(=O)c2ccc(NC(=O)c3ccc(N4CCCC4)c([N+](=O)[O-])c3)cc2)no1 | 4.46 | 
Cc1cc(Cl)ccc1NC(=O)c1cc(-c2cccnc2)n[nH]1 |  | > 40 µM (inactive)
CCn1cc2c(n1)c(=O)n(Cc1ccccc1)c(=O)n2CC(=O)Nc1ccc(OC)cc1 | 4.44 | 
Cc1ccccc1NC(=O)Cn1ccc2ccn(Cc3ccccc3)c2c1=O |  | > 40 µM (inactive)
COc1cc(NC(=O)Cn2c(=O)n(-c3ccc(CC(=O)NC4CCCC4)cc3)c(=O)c3ccccc32)cc(OC)c1 |  | > 40 µM (inactive)
Cc1ccc(C)c(NC(=O)Cn2cc(C(=O)C3CC3)c3ccccc32)c1 | 4.81 | 

Structure (SMILES) | pIC50 | IC50
COc1ccc(NC(=O)[C@H](C)NC(=O)c2cc3c(OC)cccc3[nH]2)cc1Cl | 4.42 | 
COC(=O)c1ccccc1NC(=O)C1CCCN(c2nnc(-n3cccc3)s2)C1 (configuration not stated) |  | > 40 µM (inactive)
CCc1cc(=O)oc2c(C)c(OCC(=O)NCc3ccccn3)ccc12 |  | > 40 µM (inactive)
COc1cccc(NC(=O)C(Sc2cccc(NC(=O)c3ccccc3F)c2)c2ccccc2)c1 (configuration not stated) | 4.47 | 
CC(C)=CCC[C@H](C(=O)O)[C@@H]1CC[C@]2(C)C3=C(CC[C@@]12C)[C@@]1(C)CCC(=O)C(C)(C)C1CC3 (some centres not stated) | 4.62 | 
CCCC(O)CCCCCCCc1cc(O)cc(O)c1C(=O)OC(CCC)CCCCCCCc1cc(O)cc(O)c1 (configuration not stated) | 4.66 | 
O=C1c2c(O)cccc2C2(Oc3cccc4cccc(c34)O2)C2OC12 (configuration not stated) | 4.81 | 
CC(NC(=O)c1ccccc1)c1nc2ccccc2n1CC(=O)Nc1ccc(C#N)cc1 (configuration not stated) | 4.88 | 
O=C(Nc1cccc(-c2nc3ncccc3o2)c1)c1ccc([N+](=O)[O-])cc1 |  | > 40 µM (inactive)
COC(=O)c1ccc(NC(=O)/C=C/c2ccc(F)cc2)cc1 |  | > 40 µM (inactive)
O=C(c1cccc2ncccc12)N1CCN(c2ccnc3cc(Cl)ccc23)CC1 |  | > 40 µM (inactive)
Cc1ccc2c(c1)c(=O)c(C(=O)c1ccccc1)cn2CC(=O)Nc1ccc2c(c1)OCCO2 |  | > 40 µM (inactive)
COc1ccc(CNC(=O)Cn2c(=O)[nH]c3c(-c4ccccc4F)c[nH]c3c2=O)cc1 |  | > 40 µM (inactive)
O=S(=O)(Nc1ccc(Oc2ncnc3cc(Cl)ccc23)nc1)c1ccc(S(=O)(=O)c2ccccc2)s1 | 4.53 | 
CCn1cc2c(n1)c(=O)n(Cc1ccccc1)c(=O)n2CC(=O)Nc1ccc(C)cc1C | 4.92 | 
COc1ccc(Cn2c(=O)[nH]c3cc(C(=O)NCCCN4CCN(c5cccc(Cl)c5)CC4)ccc3c2=O)cc1 |  | > 40 µM (inactive)
COC(=O)c1ccccc1NC(=O)CSc1nnc(CNc2ccc(F)cc2)n1CC1CCCO1 (configuration not stated) |  | > 40 µM (inactive)
COc1ccc(CCNC(=O)Cn2c(=O)n(-c3ccc(CC(=O)NCCc4ccccc4)cc3)c(=O)c3ccccc32)cc1OC |  | > 40 µM (inactive)
Cc1ccccc1NC(=O)CSC1=NC2(CCCCC2)Nc2ccccc21 |  | > 40 µM (inactive)
CC(NC(=O)c1ccccc1)c1nc2ccccc2n1CC(=O)Nc1ccc(OC(F)(F)F)cc1 (configuration not stated) | 4.42 | 
C[C@@H]1OC2=C(C(=O)c3cccc(O)c3C2=O)[C@H](O)[C@@H]1O | 5.21 | 
O=S1(=O)CCN(Cc2cccnc2)c2c(F)nc(N3CCOCC3)c(F)c21 |  | > 40 µM (inactive)
Cc1cc(C(=O)N2CCOCC2)c(C)n1-c1ccc(O)cc1 |  | > 40 µM (inactive)

Reference: PubChem BioAssay AID1645863 (Buhrlage Lab, Dana-Farber Cancer Institute and Novartis …, 2021)
